How the values were obtained:
[1] = tested on: STZ-treated C57BL/6J mice; assay: Multiple low-dose streptozotocin (STZ) diabetes model in C57BL/6J mice; format: in vivo, mouse
Protocol: To test the role of eIF5A in cytokine-mediated islet dysfunction, efforts were made to identify a mouse model of islet inflammation. The multiple low dose streptozotocin (STZ) model, in which mice are subjected to five daily intraperitoneal doses (at 55 mg/kg body weight) of STZ, is considered to provoke local islet inflammation and cytokine release, in part through the recruitment of CD11c+ dendritic cells that release pro-inflammatory cytokines in the area of STZ-induced cellular destruction (27 and 28).
C57BL/6J mice were injected intraperitoneally with either stabilized siRNA against eIF5A (si-eIF5A) or control siRNA (si-Control) daily for three days, then subjected to the multiple low-dose STZ protocol (see schematic in FIG. 1a). […] The effect of administering si-eIF5A on islet viability following STZ treatment was determined by performing immunohistochemical analysis of the pancreata of mice. […] To quantify the differences in islet mass between STZ-treated and untreated animals, morphometry of insulin-stained pancreatic sections was performed.
Based on the observed data, if hypusination of eIF5A by DHS is required for cytokine responsiveness in islets, then inhibition of DHS in vivo should protect against low dose STZ diabetes. To test this, C57BL/6J mice were treated with GC7 or vehicle and then subjected to low dose STZ injections. GC7 was delivered in one of two different ways: either by daily bolus intraperitoneal injections (4 mg/kg/day) or by continuous subcutaneous delivery (40 μg/kg/h) using implanted osmotic pumps. A protocol similar to that shown in FIG. 1A was employed in these studies, with GC7 injections or pump implants starting 3 days prior to STZ injections.
Small interfering RNA (siRNA) studies: Stabilized siRNAs for intraperitoneal injections were custom synthesized by Dharmacon using the siSTABLE® modification. Groups of 10 week-old C57BL/6J male mice (from Jackson Labs) received daily intraperitoneal injections of 1.6 mg/kg siRNA prepared in 0.9% saline or vehicle alone (0.9% saline) for 3 days. For in vitro studies, islets from each group of injected mice were harvested on the fourth day and pooled prior to analysis. Injections with each siRNA were performed on at least 3 different occasions. siRNA sequences were as follows: siControl, 5′-[…]-3′; si-eIF5A, 5′-[…]-3′. For siRNA studies in the rat β cell-derived line INS-1 (832/13), cells were transfected with a SMART Pool® siRNA against rat eIF5A1 (Dharmacon, #L-083855-01) or non-targeting control siRNA #1 (Dharmacon) using DharmaFECT® transfection reagent (Dharmacon).
Immunostaining and morphometric assessment of β cell mass: Immunostaining of pancreatic sections proceeded as described previously (72). For assessment of islet cell death in pancreatic sections, the technique of terminal deoxynucleotidyl transferase dUTP nick end labeling (TUNEL) was performed using biotinylated 16-dUTP (Roche) and Texas Red Neutravidin (Invitrogen). Digital images of each islet at 40× magnification were acquired using an Axio-Observer D1 microscope (Zeiss) inverted fluorescent microscope equipped with a high-resolution color camera. TUNEL-positive/insulin-positive nuclei were counted manually by an observer blinded to sample identity, and data were re-coded as the average number of TUNEL-positive nuclei per islet. β cell mass was calculated as described previously (73), but with some modifications. Briefly, pancreata from 3 mice per treatment group were rapidly dissected and weighed, fixed in 4% paraformaldehyde, paraffin-embedded, and longitudinally sectioned. Three sections/pancreas (approx. 75 μm apart) were subsequently immunostained for insulin and counterstained with hematoxylin as described (74), and digital images of each section at 10× magnification were acquired on an Axio-Observer Z1 microscope (Zeiss) fitted with an AxioCam high resolution color camera. […]

iNOS = assay: Cytokine-induced iNOS protein in INS-1 cells (immunoblot); format: cell-based, rat
Excerpt: eIF5A1 and eIF5A2 are the only proteins known to contain the unique amino acid hypusine at position 50. Hypusine is formed as a posttranslational modification of residue Lys50 in a reaction requiring spermidine and catalyzed by the sequential actions of the enzymes deoxyhypusine synthase (DHS) and deoxyhypusine hydroxylase (DOHH) (Chen, K Y, and Liu, A Y. Biochemistry and function of hypusine formation on eukaryotic initiation factor 5A. Biol Signals. 1997; 6(3):105-109). […] To further investigate the mechanism of eIF5A-regulated translation of Nos2, studies were performed following overnight incubation of cells with mimosine (an inhibitor of DOHH) and GC7 (an inhibitor of DHS). […] Similar data using GC7 were obtained in primary mouse islets (data not shown) and in human islets (FIGS. 5F and 5G).
Because GC7 is known to be inactivated by the action amine oxidases, which are abundant in serum, typical studies with GC7 in the literature have used aminoguanidine to inhibit amine oxidases (16). […] To rule out possible adverse effects of GC7 on cell viability, quantitative 2 color fluorescence analysis of live (calcein-AM-positive) and dead (ethidium homodimer-1-positive) cells were performed using fluorescence cytometry.
Cytokine and inhibitor incubation studies: For cytokine incubation assays, a 1000× cocktail of cytokines containing 5 μg/ml IL1β, 10 μg/ml TNFα, and 100 μg/ml IFNγ (all prepared in 0.1% BSA in Tris-buffered saline) was applied at 1× final concentration to groups of 50 islets or 1×10^6 INS-1 (832/13) cells for a total of 4 h at 37° C. For GC7 incubation studies, GC7 was prepared at a stock concentration of 125 mM in 10 mM acetic acid and applied to cultures of 50 islets or 1×10^6 INS-1 cells to obtain the final concentrations indicted in the figures. Where needed, GC7 was protected from amine oxidases in serum by addition of 1 mM aminoguanidine (Sigma). Cells were incubated with GC7 overnight (˜16 h) at 37° C. prior to analysis. Cells were exposed to Leptomycin B (Cayman Chemicals) for 3 hours; leptomycin B was prepared at a 1000× stock concentration of 20 μg/ml in ethanol.
Immunoblot and nitrite and iNOS assays: Whole cell extracts were resolved by electrophoresis on a 4-20% SDS-polyacrylamide gel, followed by immunoblot using anti-eIF5A1, anti-eIF5A2, anti-iNOS, anti-GFP, or anti-actin primary antibodies and fluorophore-labeled secondary antibodies. Immunoblots were visualized using the Li-Cor® Odyssey® system (Li-Cor Biosciences) and quantitated by scanning fluorometry using Odyssey Imaging v. […] Nitrite was quantitated by measuring nitric oxide-derived nitrite from INS-1 cell culture medium using the Griess reagent (Promega) according to the manufacturer's recommendations. iNOS activity was measured using a commercially available kit (Cayman).

Compound	average fasting blood glucose ([1]; siRNA 1.6 mg/kg i.p. daily for 3 days, then multiple low-dose STZ, day 7) [mg/dL]	immunohistochemical staining for iNOS in islets ([1]; siRNA i.p., STZ, end of the study)	islet number and insulin staining of pancreata (immunohistochemistry) ([1]; siRNA i.p., multiple low-dose STZ)	glucose tolerance in IPGTT ([1]; siRNA i.p., multiple low-dose STZ, compared to si-Control-injected mice)	reduction of β cell mass compared to non-STZ-treated controls ([1]; siRNA i.p., multiple low-dose STZ, morphometry of insulin-stained sections) [fold]	iNOS induction in islets by immunoblot ([1]; siRNA i.p., 24 h after the first STZ treatment)	STZ-induced glucose intolerance (GTT), osmotic pump GC7 ([1]; GC7 40 μg/kg/h continuous s.c. osmotic pump, started 3 days before STZ)	STZ-induced glucose intolerance (GTT), intraperitoneal GC7 ([1]; GC7 4 mg/kg/day i.p. bolus, started 3 days before STZ)	β cell mass (histomorphometry) ([1]; GC7-injected animals, STZ)	iNOS production in islets ([1]; GC7-treated pump animals, STZ)	TUNEL+ cells per islet ([1]; GC7 plus STZ, STZ alone 0.78)	serum IL-6 levels ([1]; concurrent treatment with STZ)	insulin secretion at 0 and 30 min during glucose challenge ([1]; pump-implanted animals, STZ)	concentration at which inhibition of iNOS was observed (iNOS; co-incubation with 1 mM aminoguanidine) [µM]	iNOS protein after cytokines (iNOS; increasing inhibitor concentrations overnight, cytokines 4 h)	concentration required to substantially block iNOS (iNOS; without aminoguanidine) [µM]
5′-AACGGAAUGACUUCCAGCUGA-3′ (siSTABLE modification, further chemistry not given here) [si-eIF5A]	101	undetectable	relatively preserved islet number and insulin granularity	improved glucose tolerance	1.4	attenuated	–	–	–	–	–	–	–	–	–	–
NCCCCCCCN=C(N)N [GC7]	–	–	–	–	–	–	near-complete protection	near-complete protection	full preservation of mass	suppression of iNOS production	0.42	did not affect IL-6 levels	normal insulin secretory response	~3	dose-dependent attenuation	> 30

— patent US20120196918A1, “PREVENTING ISLET INFLAMMATION AND DYSFUNCTION AND MAINTAINING PROPER GLUCOSE LEVELS BY CONTROLLING eIF5A AND ITS HYPUSINATION” (priority 2009, published 2012)
